Assay results reported in US20140094424A1, “MICROBICIDAL COMPOSITIONS AND METHODS OF PRODUCTION USE THEREOF” (priority 2011, published 2014).

Experiments:
[1] = test system: Pseudomonas putida (K); test: MBC (minimum bactericidal concentration) test in Wash NEXT reagent; format: cell-based
Description: (§1) The stock organisms were thawed and subbed prior to beginning the MBC test. Molds were subbed to SDA plates one week before, and the bacteria were subbed to TAT agar plates 24 hours prior to the start of the test. All plates were incubated at 32 degrees C.
(§2) Each bacterial organism was inoculated into 40 ml sterile saline in a centrifuge tube to create a density of MacFarland #1. Two serial dilutions of 1:100 were then made, resulting in 10^−2 and 10^−4 concentrations. Each dilution was vortexed before it was sampled, and sterile Eppendorf pipette tips were used to make each transfer. The 10^−4 dilution was spiral plated to yield the initial inoculum concentration.
(§3) MBC trays were set up with the prepared test reagent. Using a Matrix pipettor, 100 μl aliquots of reagent were distributed into the wells, diluting the amount of preservative from 100% to 10% increments, using unpreserved reagent as the diluent. In one row, 100% non-preserved reagent acted as a positive control and served as a benchmark for a full mat of growth. In well #12H, 100 μl unpreserved reagent was pipetted, and this well was not inoculated with organisms, as it served as the negative control. Once all of the trays were prepared, the prepared bacteria/mold suspensions were poured into the MBC inoculating trays. These were placed onto the reagent trays, and 0.01 ml inoculum was introduced into the 100 μl of reagent in each well.
(§4) This was done by dipping a sterile cotton swab into each well, and absorbing all of the liquid in the well. The swab was rolled onto a TAT agar plate ensuring that the entire swab touches the agar. Plates ware incubated at 32 degrees C. for 48 hours to 7 days, depending on the organism. Observations for growth were performed by a scoring matrix using + for a full mat, +/− for some growth, a numerical value for an actual colony count, and—for no growth.
(§5) Below are tables that contain the data obtained in Example 1. The MBC test is scored by (+) indicating a full grown mat of organisms, equivalent to the organisms in the unpreserved reagent. (+/−) indicates there is some kill evident disturbing that mat or bringing the quantities down to an almost countable level. An actual number is the actual number of colonies growing at that concentration of preservative. (−) indicates no growth found. The MBC trays were stored at room temperature for the entire test.
(§6) The materials and methods and analysis of the MBC test were the same as in Example 1.

[2] = test system: Aspergillus glaucus- DMO (Q); test: as above; format: cell-based; conditions: for total kill at % preservative (MBC): at 14 days
Description: as §1
as §2, with “For the molds, each” for “Each bacterial”, “#5.” for “#1.”
as §3, §4, §5, §6

## [N-]=[N+]=[N-] [Sodium Azide, sodium azide]
[1]; 10% preservative, 8 hour
  MBC test growth score: +
[1]; 10% preservative, 24 hour
  MBC test growth score: +
[1]; 10% preservative, 48 hour
  MBC test growth score: +
[1]; 10% preservative, 72 hour
  MBC test growth score: +
[1]; 20% preservative, 8 hour
  MBC test growth score: +
[1]; 20% preservative, 24 hour
  MBC test growth score: +
[1]; 20% preservative, 48 hour
  MBC test growth score: +
[1]; 20% preservative, 72 hour
  MBC test growth score: +
[1]; 30% preservative, 8 hour
  MBC test growth score: +
[1]; 30% preservative, 24 hour
  MBC test growth score: +
[1]; 30% preservative, 48 hour
  MBC test growth score: +
[1]; 30% preservative, 72 hour
  MBC test growth score: +
[1]; 40% preservative, 8 hour
  MBC test growth score: +
[1]; 40% preservative, 24 hour
  MBC test growth score: +
[1]; 40% preservative, 48 hour
  MBC test growth score: +
[1]; 40% preservative, 72 hour
  MBC test growth score: +
[1]; 50% preservative, 8 hour
  MBC test growth score: +
[1]; 50% preservative, 24 hour
  MBC test growth score: +
[1]; 50% preservative, 48 hour
  MBC test growth score: +
[1]; 50% preservative, 72 hour
  MBC test growth score: +
[1]; 60% preservative, 8 hour
  MBC test growth score: +
[1]; 60% preservative, 24 hour
  MBC test growth score: +
[1]; 60% preservative, 48 hour
  MBC test growth score: +
[1]; 60% preservative, 72 hour
  MBC test growth score: +
[1]; 70% preservative, 8 hour
  MBC test growth score: +
[1]; 70% preservative, 24 hour
  MBC test growth score: +
[1]; 70% preservative, 48 hour
  MBC test growth score: +
[1]; 70% preservative, 72 hour
  MBC test growth score: +
[1]; 80% preservative, 8 hour
  MBC test growth score: +
[1]; 80% preservative, 24 hour
  MBC test growth score: +
[1]; 80% preservative, 48 hour
  MBC test growth score: +
[1]; 80% preservative, 72 hour
  MBC test growth score: +
[1]; 90% preservative, 8 hour
  MBC test growth score: +
[1]; 90% preservative, 24 hour
  MBC test growth score: +
[1]; 90% preservative, 48 hour
  MBC test growth score: +
[1]; 90% preservative, 72 hour
  MBC test growth score: +
[1]; 100% preservative, 8 hour
  MBC test growth score: +
[1]; 100% preservative, 24 hour
  MBC test growth score: +
[1]; 100% preservative, 48 hour
  MBC test growth score: +
[1]; 100% preservative, 72 hour
  MBC test growth score: +
[1]; at 72 hours, listed as Na Azide
  total kill at % preservative (MBC): No kill @ 100%
[2]; 10% preservative, 8 hour
  MBC test growth score: +
[2]; 10% preservative, 24 hour
  MBC test growth score: +
[2]; 10% preservative, 48 hour
  MBC test growth score: +
[2]; 10% preservative, 72 hour
  MBC test growth score: +
[2]; 10% preservative, 7 day
  MBC test growth score: +
[2]; 10% preservative, 14 day
  MBC test growth score: +/−
[2]; 20% preservative, 8 hour
  MBC test growth score: +
[2]; 20% preservative, 24 hour
  MBC test growth score: +
[2]; 20% preservative, 48 hour
  MBC test growth score: +
[2]; 20% preservative, 72 hour
  MBC test growth score: +
[2]; 20% preservative, 7 day
  MBC test growth score: +
[2]; 20% preservative, 14 day
  MBC test growth score: +/−
[2]; 30% preservative, 8 hour
  MBC test growth score: +
[2]; 30% preservative, 24 hour
  MBC test growth score: +
[2]; 30% preservative, 48 hour
  MBC test growth score: +
[2]; 30% preservative, 72 hour
  MBC test growth score: +
[2]; 30% preservative, 7 day
  MBC test growth score: +
[2]; 30% preservative, 14 day
  MBC test growth score: +/−
[2]; 40% preservative, 8 hour
  MBC test growth score: +
[2]; 40% preservative, 24 hour
  MBC test growth score: +
[2]; 40% preservative, 48 hour
  MBC test growth score: +
[2]; 40% preservative, 72 hour
  MBC test growth score: +
[2]; 40% preservative, 7 day
  MBC test growth score: +
[2]; 40% preservative, 14 day
  MBC test growth score: +/−
[2]; 50% preservative, 8 hour
  MBC test growth score: +
[2]; 50% preservative, 24 hour
  MBC test growth score: +
[2]; 50% preservative, 48 hour
  MBC test growth score: +
[2]; 50% preservative, 72 hour
  MBC test growth score: +
[2]; 50% preservative, 7 day
  MBC test growth score: +
[2]; 50% preservative, 14 day
  MBC test growth score: +/−
[2]; 60% preservative, 8 hour
  MBC test growth score: +
[2]; 60% preservative, 24 hour
  MBC test growth score: +
[2]; 60% preservative, 48 hour
  MBC test growth score: +
[2]; 60% preservative, 72 hour
  MBC test growth score: +
[2]; 60% preservative, 7 day
  MBC test growth score: +
[2]; 60% preservative, 14 day
  MBC test growth score: +/−
[2]; 70% preservative, 8 hour
  MBC test growth score: +
[2]; 70% preservative, 24 hour
  MBC test growth score: +
[2]; 70% preservative, 48 hour
  MBC test growth score: +
[2]; 70% preservative, 72 hour
  MBC test growth score: +
[2]; 70% preservative, 7 day
  MBC test growth score: +
[2]; 70% preservative, 14 day
  MBC test growth score: +/−
[2]; 80% preservative, 8 hour
  MBC test growth score: +
[2]; 80% preservative, 24 hour
  MBC test growth score: +
[2]; 80% preservative, 48 hour
  MBC test growth score: +
[2]; 80% preservative, 72 hour
  MBC test growth score: +
[2]; 80% preservative, 7 day
  MBC test growth score: +
[2]; 80% preservative, 14 day
  MBC test growth score: +/−
[2]; 90% preservative, 8 hour
  MBC test growth score: +
[2]; 90% preservative, 24 hour
  MBC test growth score: +
[2]; 90% preservative, 48 hour
  MBC test growth score: +
[2]; 90% preservative, 72 hour
  MBC test growth score: +
[2]; 90% preservative, 7 day
  MBC test growth score: +
[2]; 90% preservative, 14 day
  MBC test growth score: +/−
[2]; 100% preservative, 8 hour
  MBC test growth score: +
[2]; 100% preservative, 24 hour
  MBC test growth score: +
[2]; 100% preservative, 48 hour
  MBC test growth score: +
[2]; 100% preservative, 72 hour
  MBC test growth score: +
[2]; 100% preservative, 7 day
  MBC test growth score: +
[2]; 100% preservative, 14 day
  MBC test growth score: +/−
[2]; listed as Na Azide
  total kill at % preservative (MBC): No kill @ 100%

## Cc1cc(NS(=O)(=O)c2ccc(N)cc2)no1 [Sulfamethoxazole, sulfamethoxazole]
[1]; 10% preservative, 8 hour
  MBC test growth score: +
[1]; 10% preservative, 24 hour
  MBC test growth score: 2
[1]; 10% preservative, 48 hour
  MBC test growth score: +/−
[1]; 10% preservative, 72 hour
  MBC test growth score: +/−
[1]; 20% preservative, 8 hour
  MBC test growth score: +
[1]; 20% preservative, 24 hour
  MBC test growth score: +/−
[1]; 20% preservative, 48 hour
  MBC test growth score: +/−
[1]; 20% preservative, 72 hour
  MBC test growth score: −
[1]; 30% preservative, 8 hour
  MBC test growth score: +
[1]; 30% preservative, 24 hour
  MBC test growth score: +/−
[1]; 30% preservative, 48 hour
  MBC test growth score: 22
[1]; 30% preservative, 72 hour
  MBC test growth score: −
[1]; 40% preservative, 8 hour
  MBC test growth score: +
[1]; 40% preservative, 24 hour
  MBC test growth score: +/−
[1]; 40% preservative, 48 hour
  MBC test growth score: 20
[1]; 40% preservative, 72 hour
  MBC test growth score: −
[1]; 50% preservative, 8 hour
  MBC test growth score: +
[1]; 50% preservative, 24 hour
  MBC test growth score: +/−
[1]; 50% preservative, 72 hour
  MBC test growth score: −
[1]; 60% preservative, 8 hour
  MBC test growth score: +
[1]; 60% preservative, 24 hour
  MBC test growth score: +/−
[1]; 60% preservative, 48 hour
  MBC test growth score: 18
[1]; 60% preservative, 72 hour
  MBC test growth score: −
[1]; 70% preservative, 8 hour
  MBC test growth score: +
[1]; 70% preservative, 24 hour
  MBC test growth score: +
[1]; 70% preservative, 48 hour
  MBC test growth score: −
[1]; 70% preservative, 72 hour
  MBC test growth score: −
[1]; 80% preservative, 8 hour
  MBC test growth score: +
[1]; 80% preservative, 24 hour
  MBC test growth score: +
[1]; 80% preservative, 48 hour
  MBC test growth score: −
[1]; 80% preservative, 72 hour
  MBC test growth score: −
[1]; 90% preservative, 8 hour
  MBC test growth score: +
[1]; 90% preservative, 24 hour
  MBC test growth score: +
[1]; 90% preservative, 48 hour
  MBC test growth score: −
[1]; 90% preservative, 72 hour
  MBC test growth score: −
[1]; 100% preservative, 8 hour
  MBC test growth score: +
[1]; 100% preservative, 24 hour
  MBC test growth score: +
[1]; 100% preservative, 48 hour
  MBC test growth score: −
[1]; 100% preservative, 72 hour
  MBC test growth score: −
[2]
  total kill at % preservative (MBC): No kill @ 100%
